Laboratory results taken from US11339171B2, “MDM2 inhibitors” (Gan & Lee Pharmaceuticals, priority 2017, dated 2022).
Values joined by “and” are separate entries in the source; they are usually repeats but may differ in a detail not shown here. Equal values may be shown once. Read-outs that look alike come from different tables or passages of the source.

What was measured:
[1] = target: T1, MDM2 (Homo sapiens, UniProt Q00987); assay: Inhibition test of MDM2-P53 (GST-MDM2, Biotin-P53, Anti-GST-Tb, SA-XL665); format: binding
T1 construct: made in house
How it was run: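 HTRF-type assay using 4 nM GST-MDM2 (final), Biotin-P53, SA-XL665 and anti-GST-Tb in PBS with 0.1% BSA, 5 mM DTT and 1 mM AEBSF. Compounds in 5-fold serial dilutions over twelve points; incubation 90 min at 25° C with shaking before plate-reader read-out.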

[2] = Pharmacokinetics in ICR mice after intravenous and intragastric administration; format: in vivo; details: for F*: PO 5 mg/kg vs IV 2 mg/kg; for MRT last: read-out: MRT(0-t); for MRT inf: read-out: MRT(0-∞); for Vd: read-out: Vz
Experimental: Experimental Example 3 Determination of the Pharmacokinetics of the Mdm2 Inhibitors of the Present Invention in Mice
ICR mice were used as the test animals, and the concentrations of the drugs in plasma of mice at different time points after intravenous administration and intragastric administration of the representative compounds were measured by a LC/MS/MS method, so as to study the pharmacokinetic behavior of the compounds of the present invention in mice and evaluate the pharmacokinetic characteristics thereof.
Some compounds prepared in Examples 1-180 of the present invention.
The control drug HDM201 was prepared by the method disclosed in patent No. CN104203952A.
Healthy adult ICR mice, male, 6-9 weeks old, weighing 20-30 g, purchased from Shanghai Xipuer-Bikai Laboratory Animal Co., Ltd., Animal Production License No.: SCXK (HU) 2013-0016
3.2.3 Preparation of Test Drugs
Intragastric or intravenous administration: an appropriate amount of sample was weighed, dissolved in 5% DMSO+40% PEG400+55% (10% HP-β-CD in Saline) to prepare a 0.5 mg/ml solution for intragastric or intravenous administration.
3.2.4 Administration of Test Drugs
Intravenous administration: for each test compound, 3 male ICR mice were administered intravenously at a dose of 2 mg/kg and an administration volume of […] after fasting overnight.
Intragastric administration: for each test compound, 3 male ICR mice were administered intragastrically at a dose of 5 mg/kg and an administration volume of […] after fasting overnight.
3.3 Experimental Operation
The collected plasma was stored at −80° C. before analysis. The plasma sample was analyzed by LC-MS/MS, and the sample was pretreated by protein precipitation method. The linear range of sample analysis was 1 to 2000 ng/ml. The lowest quantification limit was 1 ng/mL. WinNonlin (Pharsight, USA) was used to calculate the following pharmacokinetic parameters: area under the curve AUC(0-t), area under the curve AUC(0-∞), half-life t1/2, retention time MRT(0-∞), blood drug concentration Cmax, time taken to reach the peak blood drug concentration Tmax, bioavailability F, apparent volume of distribution Vz, and clearance rate CL.

[3] = system: human osteosarcoma cell line SJSA-1; assay: Inhibition of proliferation of human osteosarcoma cell line SJSA-1 (DAPI staining, In Cell Analyzer); details: Homo sapiens, SJSA-1, 72 h, read-out: IC50 (nM), inhibitory activity on proliferation of human osteosarcoma cell line SJSA-1, SJSA-1, incubated 72 h
[4] = IV 2 mg/kg, ICR mice, individual animal, 2 mg/kg
[5] = PO 5 mg/kg, ICR mice, individual animal, 5 mg/kg
[6] = male, ICR, mouse, plasma, iv, 2 mg/kg, IV 2 mg/kg, ICR mice, Mean
[7] = male, ICR, mouse, plasma, iv, 2 mg/kg, IV 2 mg/kg, ICR mice, Mean, read-out: AUC(0-t)
[8] = male, ICR, mouse, plasma, iv, 2 mg/kg, IV 2 mg/kg, ICR mice, Mean, read-out: Cmax
[9] = male, ICR, mouse, plasma, iv, 2 mg/kg, IV 2 mg/kg, ICR mice, Mean, read-out: Tmax
[10] = male, ICR, mouse, plasma, iv, 2 mg/kg, IV 2 mg/kg, ICR mice, Mean, read-out: t1/2 (converted)
[11] = male, ICR, mouse, plasma, iv, 2 mg/kg, IV 2 mg/kg, ICR mice, individual animal
[12] = male, ICR, mouse, plasma, iv, 2 mg/kg, IV 2 mg/kg, ICR mice, individual animal, read-out: AUC(0-t)
[13] = male, ICR, mouse, plasma, iv, 2 mg/kg, IV 2 mg/kg, ICR mice, individual animal, read-out: Cmax
[14] = male, ICR, mouse, plasma, iv, 2 mg/kg, IV 2 mg/kg, ICR mice, individual animal, read-out: Tmax
[15] = male, ICR, mouse, plasma, iv, 2 mg/kg, IV 2 mg/kg, ICR mice, individual animal, read-out: t1/2 (converted)
[16] = male, ICR, mouse, plasma, po, 5 mg/kg, PO 5 mg/kg, ICR mice, Mean
[17] = male, ICR, mouse, plasma, po, 5 mg/kg, PO 5 mg/kg, ICR mice, Mean, read-out: AUC(0-t)
[18] = male, ICR, mouse, plasma, po, 5 mg/kg, PO 5 mg/kg, ICR mice, Mean, read-out: Cmax
[19] = male, ICR, mouse, plasma, po, 5 mg/kg, PO 5 mg/kg, ICR mice, Mean, read-out: Tmax
[20] = male, ICR, mouse, plasma, po, 5 mg/kg, PO 5 mg/kg, ICR mice, Mean, read-out: t1/2 (converted)
[21] = male, ICR, mouse, plasma, po, 5 mg/kg, PO 5 mg/kg, ICR mice, individual animal
[22] = male, ICR, mouse, plasma, po, 5 mg/kg, PO 5 mg/kg, ICR mice, individual animal, read-out: AUC(0-t)
[23] = male, ICR, mouse, plasma, po, 5 mg/kg, PO 5 mg/kg, ICR mice, individual animal, read-out: Cmax
[24] = male, ICR, mouse, plasma, po, 5 mg/kg, PO 5 mg/kg, ICR mice, individual animal, read-out: Tmax
[25] = male, ICR, mouse, plasma, po, 5 mg/kg, PO 5 mg/kg, ICR mice, individual animal, read-out: t1/2 (converted)
[26] = male, ICR, mouse, plasma, po, 5 mg/kg, oral intragastric administration 5 mg/kg, read-out: AUC0-t

T1 sequence (Q00987 whole entry): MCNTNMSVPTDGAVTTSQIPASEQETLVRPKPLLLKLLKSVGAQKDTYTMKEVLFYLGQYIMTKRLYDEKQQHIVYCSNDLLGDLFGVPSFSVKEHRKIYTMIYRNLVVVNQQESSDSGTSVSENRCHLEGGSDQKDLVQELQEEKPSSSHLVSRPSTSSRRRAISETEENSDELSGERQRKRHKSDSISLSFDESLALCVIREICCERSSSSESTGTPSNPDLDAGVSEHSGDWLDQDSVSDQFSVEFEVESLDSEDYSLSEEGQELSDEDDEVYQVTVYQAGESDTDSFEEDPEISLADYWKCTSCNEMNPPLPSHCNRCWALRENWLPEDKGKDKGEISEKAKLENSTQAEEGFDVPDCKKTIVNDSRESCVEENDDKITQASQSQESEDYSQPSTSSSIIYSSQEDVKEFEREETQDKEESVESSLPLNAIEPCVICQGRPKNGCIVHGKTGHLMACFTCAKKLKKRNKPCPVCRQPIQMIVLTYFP

COc1ccc(-c2nc3c(n2C(C)C)[C@@]2(C(=O)Nc4cc(Cl)ccc42)N(c2cc(Cl)ccc2C)C3=O)c(OC)c1 [Example S-9, (S)-6-chloro-5′-(5-chloro-2-methylphenyl)-2′-(2,4-dimethoxyphenyl)-3′-isopropyl-3′H-spiro[dihydroindole-3,4′-pyrrolo[3,4-d]imidazole]-2,6′(5′H)-dione]
IC50 [1]: 2.38 nM
AUC(0-t) [2, 4]: 4107.04 ng·h/mL and 3334.44 ng·h/mL
AUC(0-∞) [2, 4]: 4214.93 ng·h/mL and 3452.37 ng·h/mL
CL [2, 4]: 7.9083 mL/min/kg and 9.6552 mL/min/kg
Cmax [2, 4]: 1643.99 ng/mL and 1403.26 ng/mL
MRT(0-t) [2, 4]: 1.47 h
MRT(0-∞) [2, 4]: 1.63 h and 1.68 h
Vz [2, 4]: 0.79338 L/kg and 1.05516 L/kg
t1/2 [2, 4]: 1.16 h and 1.26 h
F* ([2]; ICR mice): 79.30%
AUC(0-t) [2, 5]: 8692.39 ng·h/mL and 6976.33 ng·h/mL
AUC(0-∞) [2, 5]: 8911.44 ng·h/mL and 7048.92 ng·h/mL
Cmax [2, 5]: 2009.05 ng/mL and 1914.07 ng/mL
MRT(0-t) [2, 5]: 2.60 h and 2.68 h
MRT(0-∞) [2, 5]: 2.78 h and 2.75 h
Tmax [2, 5]: 1.00 h
t1/2 [2, 5]: 1.44 h and 1.22 h
AUC(0-inf) [2, 6]: 3830 ng·h/mL
clearance [2, 6]: 8.76 mL/min/kg
AUC(0-t) [2, 7]: 3700 ng·h/mL
Cmax [2, 8]: 1440 ng/mL
MRT last [2, 6]: 1.51 h
MRT inf [2, 6]: 1.73 h
Tmax [2, 9]: 0.083 h
Vd [2, 6]: 0.968 L/kg
half-life [2, 10]: 1.27 h
AUC(0-inf) [2, 11]: 3830 ng·h/mL
clearance [2, 11]: 8.7 mL/min/kg
AUC(0-t) [2, 12]: 3650 ng·h/mL
Cmax [2, 13]: 1270 ng/mL
MRT last [2, 11]: 1.58 h
MRT inf [2, 11]: 1.88 h
Tmax [2, 14]: 0.08 h
Vd [2, 11]: 1.05 L/kg
half-life [2, 15]: 1.4 h
AUC(0-inf) [2, 16]: 7510 ng·h/mL
AUC(0-t) [2, 17]: 7330 ng·h/mL
Cmax [2, 18]: 1760 ng/mL
MRT last [2, 16]: 2.64 h
MRT inf [2, 16]: 2.82 h
Tmax [2, 19]: 1.33 h
half-life [2, 20]: 1.41 h
AUC(0-inf) [2, 21]: 6560 ng·h/mL
AUC(0-t) [2, 22]: 6320 ng·h/mL
Cmax [2, 23]: 1370 ng/mL
MRT last [2, 21]: 2.65 h
MRT inf [2, 21]: 2.92 h
Tmax [2, 24]: 2 h
half-life [2, 25]: 1.57 h
AUC(0-t) [2, 26]: 7330 ng·h/mL
IC50 [3]: 7.39 nM

COc1cc(OC)c(-c2nc3c(n2C(C)C)[C@@]2(C(=O)Nc4cc(Cl)ccc42)N(c2cc(Cl)ccc2C)C3=O)cn1 [Example S-11, (S)-6-chloro-5′-(5-chloro-2-methylphenyl)-2′-(4,6-dimethoxypyridin-3-yl)-3′-isopropyl-3′H-spiro[dihydroindole-3,4′-pyrrolo[3,4-d]imidazole]-2,6′(5′H)-dione]
IC50 [1]: 1.58 nM
AUC(0-t) [2, 4]: 3578.38 ng·h/mL and 4225.58 ng·h/mL
AUC(0-∞) [2, 4]: 3680.24 ng·h/mL and 4820.40 ng·h/mL
CL [2, 4]: 9.06 mL/min/kg and 6.92 mL/min/kg
Cmax [2, 4]: 1376.51 ng/mL and 1519.69 ng/mL
MRT(0-t) [2, 4]: 1.43 h and 1.81 h
MRT(0-∞) [2, 4]: 1.61 h and 2.70 h
Vz [2, 4]: 0.91 L/kg and 1.25 L/kg
t1/2 [2, 4]: 2.09 h
F* ([2]; ICR mice): 102.51%
AUC(0-t) [2, 5]: 8536.56 ng·h/mL and 11568.40 ng·h/mL
AUC(0-∞) [2, 5]: 8816.41 ng·h/mL and 11784.98 ng·h/mL
Cmax [2, 5]: 1573.02 ng/mL and 2144.69 ng/mL
MRT(0-t) [2, 5]: 2.87 h
MRT(0-∞) [2, 5]: 3.11 h and 3.05 h
Tmax [2, 5]: 2.00 h
t1/2 [2, 5]: 1.55 h and 1.33 h
AUC(0-inf) [2, 6]: 3920 ng·h/mL
clearance [2, 6]: 8.74 mL/min/kg
AUC(0-t) [2, 7]: 3660 ng·h/mL
Cmax [2, 8]: 1400 ng/mL
MRT last [2, 6]: 1.55 h
MRT inf [2, 6]: 1.95 h
Tmax [2, 9]: 0.5 h
Vd [2, 6]: 1.06 L/kg
half-life [2, 10]: 1.46 h
AUC(0-inf) [2, 11]: 3250 ng·h/mL
clearance [2, 11]: 10.3 mL/min/kg
AUC(0-t) [2, 12]: 3170 ng·h/mL
Cmax [2, 13]: 1300 ng/mL
MRT last [2, 11]: 1.4 h
MRT inf [2, 11]: 1.55 h
Tmax [2, 14]: 0.5 h
Vd [2, 11]: 1.02 L/kg
half-life [2, 15]: 1.15 h
AUC(0-inf) [2, 16]: 9790 ng·h/mL
AUC(0-t) [2, 17]: 9370 ng·h/mL
Cmax [2, 18]: 1790 ng/mL
MRT last [2, 16]: 2.92 h
MRT inf [2, 16]: 3.27 h
Tmax [2, 19]: 1.33 h
half-life [2, 20]: 1.69 h
AUC(0-inf) [2, 21]: 8770 ng·h/mL
AUC(0-t) [2, 22]: 8020 ng·h/mL
Cmax [2, 23]: 1650 ng/mL
MRT last [2, 21]: 2.96 h
MRT inf [2, 21]: 3.66 h
Tmax [2, 24]: 1 h
half-life [2, 25]: 2.18 h
AUC(0-t) [2, 26]: 9370 ng·h/mL
half-life ([2]; male, ICR, mouse, plasma, po, 5 mg/kg, oral intragastric administration 5 mg/kg, read-out: half-life (converted)): 1.69 h
bioavailability ([2]; male, ICR, mouse, plasma, oral intragastric administration 5 mg/kg, read-out: bioavailability): 103%
IC50 [3]: 1.67 nM
